Type in all cases: functional, organism-based
In assay [1] the test system is Rattus norvegicus. Put plainly: Ratio of ovulated rats to total number of rats determined in a anti-ovulatory assay by administering 0.5 microg of compound; 6/7.
Assay [2] has as its system Rattus norvegicus. Kind of assay: Ratio of ovulated rats to total number of rats determined in a anti-ovulatory assay by administering 1 microg of compound; 5/13.
Assay [3] deals with Rattus norvegicus. Kind of assay: Ratio of ovulated rats to total number of rats determined in a anti-ovulatory assay by administering 2.5 microg of compound; 0/7.
For assay [4], the system named is Rattus norvegicus. Kind of assay: Ratio of ovulated rats to total number of rats determined in a anti-ovulatory assay by administering 2.5 microg of compound; 0/5.
Assay [5] concerns Rattus norvegicus. Put plainly: Ratio of ovulated rats to total number of rats determined in a anti-ovulatory assay by administering 1 microg of compound; 6/14.
Assay [6] deals with Rattus norvegicus. Kind of assay: Ratio of ovulated rats to total number of rats determined in a anti-ovulatory assay by administering 10 ug of compound; 0/8.
Assay [7] has as its system Rattus norvegicus. Kind of assay: Ratio of ovulated rats to total number of rats determined in a anti-ovulatory assay by administering 5 microg of compound; 1/8.
For assay [8], the system named is Rattus norvegicus. Kind of assay: Ratio of ovulated rats to total number of rats determined in a anti-ovulatory assay by administering 100 microg of compound; 0/8.
For assay [9], the system named is Rattus norvegicus. Kind of assay: Ratio of ovulated rats to total number of rats determined in a anti-ovulatory assay by administering 50 microg of compound; 3/8.
The test system of assay [10] is Rattus norvegicus. Put plainly: Ratio of ovulated rats to total number of rats determined in a anti-ovulatory assay by administering 2.5 microg of compound; 7/8.
Assay [11] has as its system Rattus norvegicus. Put plainly: Ratio of ovulated rats to total number of rats determined in a anti-ovulatory assay by administering 10 microg of compound; 4/8.
For assay [12], the system named is Rattus norvegicus. Kind of assay: Ratio of ovulated rats to total number of rats determined in a anti-ovulatory assay by administering 10 microg of compound; 3/7.
In assay [13] the test system is Rattus norvegicus. Kind of assay: Ratio of ovulated rats to total number of rats determined in a anti-ovulatory assay by administering 2.5 microg of compound; 5/8.
For assay [14], the system named is Rattus norvegicus. Kind of assay: Ratio of ovulated rats to total number of rats determined in a anti-ovulatory assay by administering 1 microg of compound; 2/7.
Assay [15] has as its system Rattus norvegicus. Put plainly: Ratio of ovulated rats to total number of rats determined in a anti-ovulatory assay by administering 2.5 microg of compound; 0/8.
In assay [16] the test system is Rattus norvegicus. Put plainly: Ratio of ovulated rats to total number of rats determined in a anti-ovulatory assay by administering 5 microg of compound; 4/8.
For assay [17], the system named is Rattus norvegicus. Kind of assay: Ratio of ovulated rats to total number of rats determined in a anti-ovulatory assay by administering 10 microg of compound; 2/6.
In assay [18] the test system is Rattus norvegicus. Put plainly: Ratio of ovulated rats to total number of rats determined in a anti-ovulatory assay by administering 25 microg of compound; 0/3.
Assay [19] has as its system Rattus norvegicus. Put plainly: Ratio of ovulated rats to total number of rats determined in a anti-ovulatory assay by administering 250 microg of compound; 8/9.
Assay [20] concerns Rattus norvegicus. Kind of assay: Ratio of ovulated rats to total number of rats determined in a anti-ovulatory assay by administering 1 ug of compound; 6/8.
For assay [21], the system named is Rattus norvegicus. Kind of assay: Ratio of ovulated rats to total number of rats determined in a anti-ovulatory assay by administering 5 microg of compound; 0/8.
The test system of assay [22] is Rattus norvegicus. Kind of assay: Ratio of ovulated rats to total number of rats determined in a anti-ovulatory assay by administering 25 microg of compound; 6/8.
In assay [23] the test system is Rattus norvegicus. Kind of assay: Ratio of ovulated rats to total number of rats determined in a anti-ovulatory assay by administering 10 microg of compound; 8/8.
Assay [24] has as its system Rattus norvegicus. Put plainly: Ratio of ovulated rats to total number of rats determined in a anti-ovulatory assay by administering 1 microg of compound; 1/8.

The source made the active and inactive calls. No cut-off for these calls is given here.

With `CC(=O)Nc1ccc(C[C@H](NC(=O)[C@H](CO)NC(=O)[C@@H](Cc2cccnc2)NC(=O)[C@@H](Cc2ccc(Cl)cc2)NC(=O)[C@@H](Cc2ccc3ccccc3c2)NC(C)=O)C(=O)N[C@H](Cc2ccc(NC(C)=O)cc2)C(=O)N[C@@H](CC(C)C)C(=O)N[C@@H](CCCCNC(C)C)C(=O)N2CCC[C@@H]2C(=O)N[C@H](C)C(N)=O)cc1`, the ov. rat/total result in [1] is “inactive”. Besides, in assay [2], the ov. rat/total entry is “Partially active”. Moreover, the ov. rat/total entry in [3] was “Active”.

With `CC(=O)Nc1ccc(C[C@H](NC(=O)[C@H](CO)NC(=O)[C@@H](NC(=O)c2cccnc2)NC(=O)[C@@H](Cc2ccc(Cl)cc2)NC(=O)[C@@H](Cc2ccc3ccccc3c2)NC(C)=O)C(=O)N[C@H](Cc2ccc(NC(C)=O)cc2)C(=O)N[C@@H](CC(C)C)C(=O)N[C@@H](CCCCNC(C)C)C(=O)N2CCC[C@@H]2C(=O)N[C@H](C)C(N)=O)cc1`, the ov. rat/total entry in assay [4] is “Active”. Also, the ov. rat/total result in assay [5] was “Partially active”.

On to `CC(=O)Nc1ccc(C[C@H](NC(=O)[C@H](CO)NC(=O)[C@H](Cc2cccnc2)NC(=O)[C@@H](Cc2ccc(Cl)cc2)NC(=O)[C@@H](Cc2ccc3ccccc3c2)NC(C)=O)C(=O)N[C@H](Cc2ccc(NC(C)=O)cc2)C(=O)N[C@@H](CC(C)C)C(=O)N[C@@H](CCCCNC(C)C)C(=O)N2CCC[C@@H]2C(=O)N[C@H](C)C(N)=O)cc1`, for which the ov. rat/total result in [6] and in assay [7] was “Active” in each case.

Regarding `CC(=O)Nc1ccc(C[C@H](NC(=O)[C@H](CO)NC(=O)[C@@H](Cc2cccnc2)NC(=O)[C@H](NC(=O)[C@@H](Cc2ccc3ccccc3c2)NC(C)=O)N(C)C(=O)c2ccc(Cl)cc2)C(=O)N[C@H](Cc2ccc(NC(C)=O)cc2)C(=O)N[C@@H](CC(C)C)C(=O)N[C@@H](CCCCNC(C)C)C(=O)N2CCC[C@@H]2C(=O)N[C@H](C)C(N)=O)cc1`, the ov. rat/total result in [8] was “Active”. Moreover, the ov. rat/total entry in assay [9] is “Partially active”.

Consider `CC(=O)Nc1ccc(C[C@H](NC(=O)[C@H](CO)NC(=O)[C@@H](Cc2cccnc2)NC(=O)[C@@H](Cc2ccc(Cl)cc2)NC(=O)[C@@H](Cc2ccc3ccccc3c2)NC(C)=O)C(=O)N[C@H](Cc2ccc(NC(C)=O)cc2)C(=O)N[C@@H](CC(C)C)C(=O)N[C@@H](C(=O)N2CCC[C@@H]2C(=O)N[C@H](C)C(N)=O)N(C)C(=O)CCNC(C)C)cc1` (single isomer, unassigned), for which the ov. rat/total entry in assay [10] is “inactive”. Further, the ov. rat/total entry in assay [11] was “Partially active”.

In the case of `CC(=O)Nc1ccc(C[C@H](NC(=O)[C@H](CO)NC(=O)[C@H](NC(=O)c2ccncc2)NC(=O)[C@@H](Cc2ccc(Cl)cc2)NC(=O)[C@@H](Cc2ccc3ccccc3c2)NC(C)=O)C(=O)N[C@H](Cc2ccc(NC(C)=O)cc2)C(=O)N[C@@H](CC(C)C)C(=O)N[C@@H](CCCCNC(C)C)C(=O)N2CCC[C@@H]2C(=O)N[C@H](C)C(N)=O)cc1` (single isomer, unassigned), in assay [12], the ov. rat/total result is “Partially active”.

Turning to `CC(=O)Nc1ccc(C[C@H](NC(=O)[C@@H](NC(=O)[C@@H](Cc2cccnc2)NC(=O)[C@@H](Cc2ccc(Cl)cc2)NC(=O)[C@@H](Cc2ccc3ccccc3c2)NC(C)=O)N(C)C=O)C(=O)N[C@H](Cc2ccc(NC(C)=O)cc2)C(=O)N[C@@H](CC(C)C)C(=O)N[C@@H](CCCCNC(C)C)C(=O)N2CCC[C@@H]2C(=O)N[C@H](C)C(N)=O)cc1` (single isomer, unassigned), the ov. rat/total entry in assay [13] was “Partially active”.

Turning to `CC(=O)Nc1ccc(C[C@H](NC(=O)[C@H](CO)NC(=O)[C@@H](Cc2cccnc2)NC(=O)[C@@H](Cc2ccc(Cl)cc2)NC(=O)[C@@H](NC(C)=O)NC(=O)c2ccc3ccccc3c2)C(=O)N[C@H](Cc2ccc(NC(C)=O)cc2)C(=O)N[C@@H](CC(C)C)C(=O)N[C@@H](CCCCNC(C)C)C(=O)N2CCC[C@@H]2C(=O)N[C@H](C)C(N)=O)cc1`, the ov. rat/total entry in assay [14] was “Partially active”. Besides, the ov. rat/total entry in assay [15] is “Active”.

For `CC(=O)Nc1ccc(C[C@H](NC(=O)[C@H](NC(=O)CO)NC(=O)[C@@H](Cc2cccnc2)NC(=O)[C@@H](Cc2ccc(Cl)cc2)NC(=O)[C@@H](Cc2ccc3ccccc3c2)NC(C)=O)C(=O)N[C@H](Cc2ccc(NC(C)=O)cc2)C(=O)N[C@@H](CC(C)C)C(=O)N[C@@H](CCCCNC(C)C)C(=O)N2CCC[C@@H]2C(=O)N[C@H](C)C(N)=O)cc1` (single isomer, unassigned), the ov. rat/total result in assay [16] is “Partially active”.

Consider `CC(=O)Nc1ccc(C[C@H](NC(=O)[C@H](CO)NC(=O)[C@@H](Cc2cccnc2)NC(=O)[C@@H](Cc2ccc(Cl)cc2)NC(=O)[C@H](Cc2ccc3ccccc3c2)NC(C)=O)C(=O)N[C@H](Cc2ccc(NC(C)=O)cc2)C(=O)N[C@@H](CC(C)C)C(=O)N[C@@H](CCCCNC(C)C)C(=O)N2CCC[C@@H]2C(=O)N[C@H](C)C(N)=O)cc1`, for which the ov. rat/total entry in [17] is “Partially active”. The ov. rat/total entry in assay [18] is “Active”.

As to `CC(=O)Nc1ccc(C[C@H](NC(=O)[C@H](CO)NC(=O)[C@@H](Cc2cccnc2)NC(=O)[C@@H](NC(=O)c2c[nH]nc2N)NC(=O)[C@@H](Cc2ccc3ccccc3c2)NC(C)=O)C(=O)N[C@H](Cc2ccc(NC(C)=O)cc2)C(=O)N[C@@H](CC(C)C)C(=O)N[C@@H](CCCCNC(C)C)C(=O)N2CCC[C@@H]2C(=O)N[C@H](C)C(N)=O)cc1` (single isomer, unassigned), the ov. rat/total entry in [19] is “inactive”.

As for `CC(=O)Nc1ccc(C[C@H](NC(=O)[C@H](NC=O)NC(=O)[C@@H](Cc2cccnc2)NC(=O)[C@@H](Cc2ccc(Cl)cc2)NC(=O)[C@@H](Cc2ccc3ccccc3c2)NC(C)=O)C(=O)N[C@H](Cc2ccc(NC(C)=O)cc2)C(=O)N[C@@H](CC(C)C)C(=O)N[C@@H](CCCCNC(C)C)C(=O)N2CCC[C@@H]2C(=O)N[C@H](C)C(N)=O)cc1`, in [20], the ov. rat/total entry is “inactive”. For the same compound, the ov. rat/total result in assay [21] was “Active”.

Take `CC(=O)Nc1ccc(C[C@H](NC(=O)[C@H](CO)NC(=O)[C@@H](NC(=O)[C@@H](Cc2ccc(Cl)cc2)NC(=O)[C@@H](Cc2ccc3ccccc3c2)NC(C)=O)N(C)C(=O)c2cccnc2)C(=O)N[C@H](Cc2ccc(NC(C)=O)cc2)C(=O)N[C@@H](CC(C)C)C(=O)N[C@@H](CCCCNC(C)C)C(=O)N2CCC[C@@H]2C(=O)N[C@H](C)C(N)=O)cc1` (single isomer, unassigned): the ov. rat/total entry in assay [22] and in [23] was “inactive” in each case.

For `CC(=O)Nc1ccc(C[C@H](NC(=O)[C@H](CO)NC(=O)[C@@H](Cc2cccnc2)NC(=O)[C@@H](Cc2ccc(Cl)cc2)NC(=O)[C@@H](Cc2ccc3ccccc3c2)NC(C)=O)C(=O)N[C@H](Cc2ccc(NC(C)=O)cc2)C(=O)N[C@@H](CC(C)C)C(=O)N[C@@H](CCCCNC(C)C)C(=O)N2CCC[C@@H]2C(=O)N[C@H](C(N)=O)N(C)C=O)cc1`, in assay [24], the ov. rat/total entry is “inactive”. The ov. rat/total result in assay [15] is “Active”.

These data come from ChEMBL document CHEMBL1130231, “Betidamino acid scan of the GnRH antagonist acyline” (J Med Chem, 1997).
